# Measured values taken from patent US7816353B2 (Exelixis, Inc., priority 2003, dated 2010).
# Target: T1, p70S6K (Homo sapiens, UniProt P23443, T412E)
# T1 construct: human p70S6 kinase domain residues 1-421, containing a T412E mutation; made in house
# Assay: p70S6 Kinase Assay (Luciferase-Coupled Chemiluminescent Kinase assay, LCCA)
# Assay type: biochemical
# Settings: human p70S6 kinase domain residues 1-421, T412E; 5 μM ATP; read-out: p70S6K IC50
# Method: Kinase activity and compound inhibition are investigated using one or more of the three assay formats described below. The ATP concentrations for each assay are selected to be close to the Michaelis-Menten constant (KM) for each individual kinase. Dose-response experiments are performed at 10 different inhibitor concentrations in a 384-well plate format. […] Y=Min+(Max−Min)/(1+(X/IC50)^H) Equation (2) p70S6 Kinase Assay
# Biochemical activity of p70S6 kinase was assessed using a Luciferase-Coupled Chemiluminescent Kinase assay (LCCA) format. Kinase activity was measured as the percent ATP remaining following the kinase reaction. Remaining ATP was detected by luciferase-luciferin-coupled chemiluminescence. […] The mixture is incubated at ambient temperature for 2 hours after which 20 μL luciferase-luciferin mix is added and the chemiluminescent signal read using a Wallac Victor^2 reader.
# T1 sequence (P23443 1-421 T412E): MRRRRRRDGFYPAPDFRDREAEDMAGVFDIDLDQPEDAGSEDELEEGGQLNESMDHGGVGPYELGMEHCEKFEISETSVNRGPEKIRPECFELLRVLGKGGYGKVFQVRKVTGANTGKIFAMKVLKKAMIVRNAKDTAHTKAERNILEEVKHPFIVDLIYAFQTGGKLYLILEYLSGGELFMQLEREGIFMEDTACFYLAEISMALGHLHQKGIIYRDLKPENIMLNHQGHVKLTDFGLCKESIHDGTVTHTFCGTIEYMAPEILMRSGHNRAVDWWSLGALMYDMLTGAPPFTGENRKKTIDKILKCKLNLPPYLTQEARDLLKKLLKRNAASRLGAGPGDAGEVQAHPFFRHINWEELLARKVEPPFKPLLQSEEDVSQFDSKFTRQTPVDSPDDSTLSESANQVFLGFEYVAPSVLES
row,Compound,IC50
1,"CSc1nc(N)nc(NCC(=O)Nc2cccc(C(F)(F)F)c2)c1/C=N/O [Example 59, N^2-[2-amino-5-[(E)-(hydroxymino)methyl]-6-(methylthio)pyrimidin-4-yl]-N-[3-(trifluoromethyl)phenyl]glycinamide]",500 to 2000 nM
2,"CSc1nc(N)nc(N[C@@H](C)C(=O)Nc2cccc(C(F)(F)F)c2)c1C#N [Example 60, N^2-[2-amino-5-cyano-6-(methylthio)pyrimidin-4-yl]-N-[3-(trifluoromethyl)phenyl]-L-alaninamide]",500 to 2000 nM
3,"CNc1nc(N)nc(SCC(=O)Nc2cccc(C(F)(F)F)c2)c1C#N [Example 61, 2-{[2-amino-5-cyano-6-(methylamino)pyrimidin-4-yl]thio}-N-[3-(trifluoromethyl)phenyl]acetamide]",500 to 2000 nM
4,CSc1nc(N)nc(SCC(=O)Nc2cc(C(F)(F)F)ccc2N)c1C#N [Example 62],500 to 2000 nM
5,"CSc1nc(N)nc(SCc2nc3ccc(C(F)(F)F)cc3[nH]2)c1C#N [Example 63, 2-amino-4-(methylthio)-6-({[6-(trifluoromethyl)-1H-benzimidazol-2-yl]methyl}thio)pyrimidine-5-carbonitrile]",500 to 2000 nM
6,"CSc1nc(N)nc(NNC(=O)Nc2cccc(C(F)(F)F)c2)c1C#N [Example 64, 2-[2-amino-5-cyano-6-(methylthio)pyrimidin-4-yl]-N-[3-(trifluoromethyl)phenyl]hydrazinecarboxamide]",500 to 2000 nM
7,"CNc1nc(NCC(=O)Nc2cccc(C(F)(F)F)c2)c(C#N)c(SC)n1 [Example 65, N^2-[5-cyano-2-(methylamino)-6-(methylthio)pyrimidin-4-yl]-N-[3-(trifluoromethyl)phenyl]glycinamide]",500 to 2000 nM
8,"CN(C)c1nc(N)nc(SCC(=O)Nc2cccc(C(F)(F)F)c2)c1C#N [Example 66, 2-{[2-amino-5-cyano-6-(dimethylamino)pyrimidin-4-yl]thio}-N-[3-(trifluoromethyl)phenyl]acetamide]",500 to 2000 nM
9,"CSc1nc(N)nc(N2CCC[C@H]2C(=O)Nc2cccc(C(F)(F)F)c2)c1C#N [Example 67, (S)-1-[2-amino-5-cyano-6-(methythio)pyrimidin-4-yl]-N-[3-(trifluoromethyl)phenyl]prolinamide]",500 to 2000 nM
10,"CSc1nc(N)nc(OC2(C(=O)Nc3cccc(C(F)(F)F)c3)CC2)c1C#N [Example 69, 1-{[2-amino-5-cyano-6-(methylthio)pyrimidin-4-yl]oxy}-N-[3-(trifluoromethyl)phenyl]cyclopropanecarboxamide]",500 to 2000 nM
11,"CSc1nc(N(C)C)nc(NCC(=O)Nc2cccc(C(F)(F)F)c2)c1C#N [Example 71, N^2-[5-cyano-2-(dimethylamino)-6-(methylthio)pyrimidin-4-yl]-N-[3-(trifluoromethyl)phenyl]glycinamide]",> 2000 nM
12,"CSc1nc(N)nc(N(C)CC(=O)Nc2cccc(C(F)(F)F)c2)c1C#N [Example 72, N^2-[2-amino-5-cyano-6-(methylthio)pyrimidin-4-yl]-N^2-methyl-N-[3-(trifluoromethyl)phenyl]glycinamide]",> 2000 nM
13,"CSc1nc(N)nc(NC2(C(=O)Nc3cccc(C(F)(F)F)c3)CC2)c1C#N [Example 73, 1-{[2-amino-5-cyno-6-(methylthio)pyrimidin-4-yl]amino}-N-[3-(trifluoromethyl)phenyl]cyclopropanecarboxamide]",> 2000 nM
14,"C[C@H](Nc1nc(N)nc([S+](C)[O-])c1C#N)C(=O)Nc1cccc(C(F)(F)F)c1 (stereo partly drawn) [Example 74, N^2-[2-amino-5-cyano-6-(methylsulfinyl)pyrimidin-4-yl]-N-[3-(trifluoromethyl)phenyl]-L-alaninamide]",> 2000 nM
15,"C[C@H](Nc1nc(N)nc(S(C)(=O)=O)c1C#N)C(=O)Nc1cccc(C(F)(F)F)c1 [Example 75, N^2-[2-amino-5-cyano-6-(methylsulfonyl)pyrimidin-4-yl]-N-[3-(trifluoromethyl)phenyl]-L-alaninamide]",> 2000 nM
16,N#Cc1cnc(N2CCOCC2)nc1NCC(=O)Nc1cccc(C(F)(F)F)c1 [Example 76],> 2000 nM
17,"CSc1nc(N)nc(SCC(=O)Nc2cc(C(F)(F)F)cc(C(F)(F)F)c2)c1C#N [Example 77, 2-{[2-amino-5-cyano-6-(methylthio)pyrimidin-4-yl]thio}-N-[3,5-bis(trifluoromethyl)phenyl]acetamide]",> 2000 nM

row,Compound,IC50
1,"COc1nc(N)nc(N[C@@H](C)C(=O)Nc2cccc(C(F)(F)F)c2)c1C#N [Example 78, N^2-[2-amino-5-cyano-6-(methyloxy)pyrimidin-4-yl]-N-[3-(trifluoromethyl)phenyl]-L-alaninamide]",> 2000 nM
2,"COc1ccc(C(F)(F)F)cc1NC(=O)[C@H](C)Nc1nc(N)nc(SC)c1C#N [Example 79, N^2-[2-amino-5-cyano-6-(methylthio)pyrimidin-4-yl]-N-[2-(methyloxy)-5-(trifluoromethyl)phenyl]-L-alaninmide]",> 2000 nM
3,"CSc1nc(N)nc(N[C@@H](C)C(=O)Nc2cc(C(F)(F)F)ccc2Cl)c1C#N [Example 80, N^2-[2-amino-5-cyano-6-(methylthio)pyrimidin-4-yl]-N-[2-5-(trifluoromethyl)phenyl]-L-alaninamide]",> 2000 nM
4,"CSc1nc(N)nc(NC(C)(C)C(=O)Nc2cccc(C(F)(F)F)c2)c1C#N [Example 81, N^2-[2-amino-5-cyano-6-(methylthio)pyrimidin-4-yl]-2-methyl-N-[3-(trifluoromethyl)phenyl]alaninamide]",> 2000 nM
5,"CSc1nc(N)nc(N[C@@H](C)C(=O)Nc2cccc(C(=O)N3CCN(C)CC3)c2)c1C#N [Example 82, N^2-[2-amino-5-cyano-6-(methylthio)pyrimidin-4-yl]-N-{3-[(4-methylpiperazin-1-yl)carbonyl]phenyl}-L-alaninamide]",> 2000 nM
6,"CSc1nc(N)nc(N[C@H](C)C(=O)Nc2cccc(C(F)(F)F)c2)c1C#N [Example 83, N^2-[2-amino-5-cyano-6-(methylthio)pyrimidin-4-yl]-N-[3-(trifluoromethyl)phenyl]-D-alaninamide]",> 2000 nM
7,"N#Cc1c(SCC(=O)Nc2cccc(C(F)(F)F)c2)nc(N)nc1N1CCOCC1 [Example 84, 2-[(2-amino-5-cyano-6-morpholin-4-ylpyrimidin-4-yl)thio]-N-[3-(trifluoromethyl)phenyl]acetamide]",> 2000 nM
8,"CSc1nc(N)nc(N2CCC[C@@H]2C(=O)Nc2cccc(C(F)(F)F)c2)c1C#N [Example 85, (R)-1-[2-amino-5-cyano-6-(methylthio)pyrimidin-4-yl]-N-[3-(trifluoromethyl)phenyl]prolinamide]",> 2000 nM
9,"CSc1nc(N)nc(N[C@@H](CCCN)C(=O)Nc2cccc(C(F)(F)F)c2)c1C#N [Example 86, N^2-[2-amino-5-cyano-6-(methylthio)pyrimidin-4-yl]-N-[3-(trifluoromethyl)phenyl]-L-ornithinamide]",> 2000 nM
10,"CSc1nc(N)nc(N(CCN(C)C)CC(=O)Nc2cccc(C(F)(F)F)c2)c1C#N [Example 87, N^2-[2-amino-5-cyano-6-(methylthio)pyrimidin-4-yl]-N^2-[2-(dimethylamino)ethyl]-N-[3-(trifluoromethyl)phenyl]glycinamide]",> 2000 nM
11,"CCOc1nc(N)nc(N[C@@H](C)C(=O)Nc2cccc(C(F)(F)F)c2)c1C#N [Example 88, N^2-[2-amino-5-cyano-6-(ethyloxy)pyrimidin-4-yl]-N-[3-(trifluoromethyl)phenyl]-L-alaninamide]",> 2000 nM
12,"C[C@H](Nc1nc(N)nc(N)c1C#N)C(=O)Nc1cccc(C(F)(F)F)c1 [Example 89, N^2-(2,6-diamino-5-cyanopyrimidin-4-yl)-N-[3-(trifluoromethyl)phenyl]-L-alaninamide]",> 2000 nM
13,"C[C@H](Nc1nc(N)ncc1C#N)C(=O)Nc1cccc(C(F)(F)F)c1 [Example 90, N^2-(2-amino-5-cyanopyrimidin-4-yl)-N-[3-(trifluoromethyl)phenyl]-L-alaninamide]",> 2000 nM
14,"CSc1nc(N)nc(N(C)[C@@H](C)C(=O)Nc2cccc(C(F)(F)F)c2)c1C#N [Example 91, N^2-[2-amino-5-cyano-6-(methylthio)pyrimidin-4-yl]-N^2-methyl-N-[3-(trifluoromethyl)phenyl]-L-alaninamide]",> 2000 nM
15,"CCN(CC)CCOc1cccc(NC(=O)[C@H](C)Nc2nc(N)nc(SC)c2C#N)c1 [Example 92, N^2-[2-amino-5-cyano-6-(methylthio)pyrimidin-4-yl]-N-(3-{[2-(diethylamino)ethyl]oxy}phenyl)-L-alaninamide]",> 2000 nM
16,"CSc1nc(N)nc(N(C)N(C)C(=O)Nc2cccc(C(F)(F)F)c2)c1C#N [Example 93, 2-[2-amino-5-cyano-6-(methylthio)pyrimidin-4-yl]-1,2-dimethyl-N-[3-(trifluoromethyl)phenyl]hydrazinecarboxamide]",> 2000 nM
17,"CSc1nc(N)nc(N[C@@H](C)C(=O)Nc2cc(N)cc(C(F)(F)F)c2)c1C#N [Example 94, N^2-[2-amino-5-cyano-6-(methylthio)pyrimidin-4-yl]-N-[3-amino-5-(trifluoromethyl)phenyl]-L-alaninamide]",> 2000 nM

# Same assay, conditions: p70S6K IC50, human p70S6 kinase domain residues 1-421, T412E; 5 μM ATP
row,Compound,IC50
1,"CSc1nc(N)nc(O[C@H](C)C(=O)Nc2cccc(C(F)(F)F)c2)c1C#N [Example 68, (2R)-2-{[2-amino-5-cyano-6-(methylthio)pyrimidin-4-yl]oxy}-N-[3-(trifluoromethyl)phenyl]propanamide]",500 to 2000 nM
